Source: patent US20060069132A1, “Azolecarboxamide herbicides” (priority 2004, published 2006)

Assays:
rice [1] = assay: Test B pre-/postemergence herbicide test; format: in vivo, Oryza sativa; settings: preemergence
Summary of the method: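 Greenhouse pot assay with simultaneous preemergence (treated seed) and postemergence (2–18 cm seedlings) applications of surfactant-containing, non-phytotoxic solvent formulations. Response scored visually 13–15 days later on a 0–100 scale, 100 meaning complete control.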

Surinam grass = assay: Test B pre-/postemergence herbicide test; format: in vivo, Urochloa decumbens; settings: for Surinam Grass plant response rating: postemergence, visual rating, scale 0 (no effect) to 100 (complete control)
Summary of the method: (§1)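 Plants compared with untreated controls 13–15 days post-treatment and given a visual 0–100 injury score. Applications: preemergence to seeds; postemergence at 1- to 4-leaf (2–18 cm); paddy species flooded, 2-leaf stage. Vehicle non-phytotoxic, surfactant included.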

[2] = test system: small flower umbrella sedge; assay: Test B flooded paddy test; format: in vivo, Cyperus difformis; settings: 1000 g ai/ha, visual rating, scale 0 to 100 (0 no effect, 100 complete control), 13 to 15 days
Summary of the method: (§2)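 Treated at 2-leaf (paddy) or 1–4-leaf, 2–18 cm (postemergence); greenhouse 13–15 d; visual score vs control, 0 none to 100 complete control; dash = not tested.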

rice [3] = assay: Test C flooded paddy test; format: in vivo, Oryza sativa
Summary of the method: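 Plants were grown to the 1- to 4-leaf stage (2–18 cm) and then treated postemergence, or grown to the 2-leaf stage for the flooded paddy test. They were held in a greenhouse for 12 to 14 days and then scored by eye against controls, where 0 is no effect and 100 is complete control.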

velvetleaf = assay: Test B pre-/postemergence herbicide test; format: in vivo, Abutilon theophrasti; settings: for Velvetleaf plant response rating: postemergence, visual rating, scale 0 (no effect) to 100 (complete control)
Summary of the method: as §1

ducksalad [4] = assay: Test B flooded paddy test; format: in vivo, Heteranthera limosa; settings: 1000 g ai/ha, visual rating, scale 0 to 100 (0 no effect, 100 complete control), 13 to 15 days
Summary of the method: as §2

wild oat = assay: Test B postemergence herbicide test; format: in vivo, Avena fatua; settings: postemergence, visual rating, scale 0 (no effect) to 100 (complete control)
Summary of the method: as §2

barnyardgrass [5] = assay: Test B pre-/postemergence herbicide test; format: in vivo, Echinochloa crus-galli; settings: for Barnyardgrass plant response rating: postemergence, visual rating, scale 0 (no effect) to 100 (complete control)
Summary of the method: (§3)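 Herbicidal effect was judged by eye on a 0–100 scale after plants stood 13 to 15 days in the greenhouse following pre- or postemergence treatment with surfactant-containing formulations.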

[6] = test system: smallflower umbrella sedge; assay: Test C flooded paddy test; format: in vivo, Cyperus difformis
wheat = assay: Test B postemergence herbicide test; format: in vivo, Triticum aestivum; set-up: key to Wheat plant response rating: 0 = no effect, 100 = complete control; settings: postemergence, visual rating, scale 0 (no effect) to 100 (complete control)
Summary of the method: as §2

giant foxtail = assay: Test B pre-/postemergence herbicide test; format: in vivo, Setaria faberi; settings: for Foxtail, Giant plant response rating: postemergence, visual rating, scale 0 (no effect) to 100 (complete control)
Summary of the method: as §1

rice [7] = assay: Test B flooded paddy test; format: in vivo, Oryza sativa; settings: 1000 g ai/ha, visual rating, scale 0 to 100 (0 no effect, 100 complete control), 13 to 15 days
Summary of the method: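 Formulated test chemicals went onto postemergence plants measuring 2 to 18 cm, at one to four leaves. For the paddy assay, species had reached two leaves. Scoring took place 13–15 days later by eye, relative to untreated plants, using 0 for no effect up to 100 for full control.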

barnyardgrass [8] = assay: Test C flooded paddy test; format: in vivo, Echinochloa crus-galli
Summary of the method: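 After a postemergence application at 1 to 4 leaves (plants 2–18 cm high), or at 2 leaves for barnyardgrass in flooded paddy, plants stayed in the greenhouse for 12 to 14 days. Damage was then judged visually relative to control plants, with 100 indicating complete control.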

large crabgrass = assay: Test B pre-/postemergence herbicide test; format: in vivo, Digitaria sanguinalis; settings: for Crabgrass, Large plant response rating: postemergence, visual rating, scale 0 (no effect) to 100 (complete control)
Summary of the method: as §1

barnyardgrass [9] = assay: Test B flooded paddy test; format: in vivo, Echinochloa crus-galli; settings: 1000 g ai/ha, visual rating, scale 0 to 100 (0 no effect, 100 complete control), 13 to 15 days
Summary of the method: as §2

pigweed = assay: Test B pre-/postemergence herbicide test; format: in vivo, Amaranthus retroflexus; settings: for Pigweed plant response rating: postemergence, visual rating, scale 0 (no effect) to 100 (complete control)
Summary of the method: as §1

lambsquarters = assay: Test B pre-/postemergence herbicide test; format: in vivo, Chenopodium album; settings: for Lambsquarters plant response rating: postemergence, visual rating, scale 0 (no effect) to 100 (complete control)
Summary of the method: as §1

corn = assay: Test B pre-/postemergence herbicide test; format: in vivo, Zea mays; settings: for Corn plant response rating: postemergence, visual rating, scale 0 (no effect) to 100 (complete control)
Summary of the method: as §1

ducksalad [10] = assay: Test C flooded paddy test; format: in vivo, Heteranthera limosa
morningglory = assay: Test B pre-/postemergence herbicide test; format: in vivo, Ipomoea coccinea; settings: for Morningglory plant response rating: postemergence, visual rating, scale 0 (no effect) to 100 (complete control)
Summary of the method: as §3

blackgrass = assay: Test B postemergence herbicide test; format: in vivo, Alopecurus myosuroides; settings: postemergence, visual rating, scale 0 (no effect) to 100 (complete control)
Summary of the method: as §2

cocklebur = assay: Test B pre-/postemergence herbicide test; format: in vivo, Xanthium strumarium; settings: for Cocklebur plant response rating: postemergence, visual rating, scale 0 (no effect) to 100 (complete control)
Summary of the method: as §3

[11] = 125 g ai/ha, 0 = no effect, 100 = complete control, preemergence
[12] = 500 g ai/ha, visual rating 0-100, 0 no effect, 100 complete control, preemergence
[13] = 62 g ai/ha, scale 0 to 100 (0 no effect, 100 complete control)
[14] = 125 g ai/ha, scale 0 to 100 (0 no effect, 100 complete control)
[15] = 250 g ai/ha, scale of 0 to 100, 0 is no effect, 100 is complete control
[16] = 500 g ai/ha, visual rating after 12 to 14 days, scale 0 to 100 (0 no effect, 100 complete control)

SMILES: CCOC(=O)c1cccc(NC(=O)c2cn(C(C)(C)C)nc2CC)c1 [Compound 186]
- Rice plant response rating (0 to 100 scale) (rice [1]; 125 g ai/ha, 0 = no effect, 100 = complete control): 0
- Plant response rating, Rice (rice [1]; 500 g ai/ha, visual rating 0-100, 0 no effect, 100 complete control): 20
- Surinam Grass plant response rating (0 to 100 scale) (Surinam grass; [11]): 0
- Plant response rating, Surinam Grass (Surinam grass; [12]): 10
- Surinam Grass plant response rating (Surinam grass; 125 g ai/ha): 10
- Surinam Grass plant response rating (Surinam grass; 500 g ai/ha): 30
- Sedge, Umbrella plant response rating [2]: 90
- Rice plant response rating (rice [3]; [13]): 40
- Rice plant response rating (rice [3]; [14]): 55
- Rice plant response rating (rice [3]; [15]): 60
- Plant response rating, Rice (rice [3]; [16]): 65
- Velvetleaf plant response rating (0 to 100 scale) (velvetleaf; [11]): 10
- Plant response rating, Velvetleaf (velvetleaf; [12]): 20
- Velvetleaf plant response rating (velvetleaf; 125 g ai/ha): 60
- Velvetleaf plant response rating (velvetleaf; 500 g ai/ha): 60
- Ducksalad plant response rating (ducksalad [4]): 90
- Oat, Wild plant response rating (wild oat; 125 g ai/ha): 10
- Oat, Wild plant response rating (wild oat; 500 g ai/ha): 20
- Barnyardgrass plant response rating (0 to 100 scale) (barnyardgrass [5]; [11]): 0
- Plant response rating, Barnyardgrass (barnyardgrass [5]; [12]): 10
- Barnyardgrass plant response rating (barnyardgrass [5]; 125 g ai/ha): 10
- Barnyardgrass plant response rating (barnyardgrass [5]; 500 g ai/ha): 50
- Sedge, Umbrella plant response rating [6, 13]: 80
- Sedge, Umbrella plant response rating [6, 14]: 80
- Sedge, Umbrella plant response rating [6, 15]: 80
- Plant response rating, Sedge, Umbrella [6, 16]: 85
- Wheat plant response rating (wheat; 125 g ai/ha): 10
- Wheat plant response rating (wheat; 500 g ai/ha): 20
- Foxtail, Giant plant response rating (0 to 100 scale) (giant foxtail; [11]): 0
- Plant response rating, Foxtail, Giant (giant foxtail; [12]): 10
- Foxtail, Giant plant response rating (giant foxtail; 125 g ai/ha): 10
- Foxtail, Giant plant response rating (giant foxtail; 500 g ai/ha): 20
- Rice plant response rating (rice [7]): 30
- Barnyardgrass plant response rating (barnyardgrass [8]; [13]): 20
- Barnyardgrass plant response rating (barnyardgrass [8]; 125 g ai/ha, scale of 0 to 100, 0 is no effect, 100 is complete control): 30
- Barnyardgrass plant response rating (barnyardgrass [8]; [15]): 45
- Plant response rating, Barnyardgrass (barnyardgrass [8]; [16]): 70
- Crabgrass, Large plant response rating (0 to 100 scale) (large crabgrass; [11]): 0
- Plant response rating, Crabgrass, Large (large crabgrass; [12]): 10
- Crabgrass, Large plant response rating (large crabgrass; 125 g ai/ha): 10
- Crabgrass, Large plant response rating (large crabgrass; 500 g ai/ha): 10
- Barnyardgrass plant response rating (barnyardgrass [9]): 30
- Pigweed plant response rating (0 to 100 scale) (pigweed; [11]): 0
- Plant response rating, Pigweed (pigweed; [12]): 0
- Pigweed plant response rating (pigweed; 125 g ai/ha): 60
- Pigweed plant response rating (pigweed; 500 g ai/ha): 60
- Lambsquarters plant response rating (0 to 100 scale) (lambsquarters; [11]): 0
- Plant response rating, Lambsquarters (lambsquarters; [12]): 0
- Lambsquarters plant response rating (lambsquarters; 125 g ai/ha): 10
- Lambsquarters plant response rating (lambsquarters; 500 g ai/ha): 30
- Corn plant response rating (0 to 100 scale) (corn; [11]): 0
- Plant response rating, Corn (corn; [12]): 10
- Corn plant response rating (corn; 125 g ai/ha): 20
- Corn plant response rating (corn; 500 g ai/ha): 20
- Ducksalad plant response rating (ducksalad [10]; [13]): 15
- Ducksalad plant response rating (ducksalad [10]; [14]): 40
- Ducksalad plant response rating (ducksalad [10]; [15]): 65
- Plant response rating, Ducksalad (ducksalad [10]; [16]): 80
- Morningglory plant response rating (0 to 100 scale) (morningglory; [11]): 0
- Plant response rating, Morningglory (morningglory; [12]): 0
- Morningglory plant response rating (morningglory; 125 g ai/ha): 20
- Morningglory plant response rating (morningglory; 500 g ai/ha): 30
- Blackgrass plant response rating (blackgrass; 125 g ai/ha): 10
- Blackgrass plant response rating (blackgrass; 500 g ai/ha): 30
- Cocklebur plant response rating (0 to 100 scale) (cocklebur; [11]): 0
- Plant response rating, Cocklebur (cocklebur; [12]): 0
- Cocklebur plant response rating (cocklebur; 125 g ai/ha): 60
- Cocklebur plant response rating (cocklebur; 500 g ai/ha): 90
